Measured values as given in patent publication US20240148821A1, “PHARMACEUTICAL USE OF CYCLIC PEPTIDE COMPOUND” (CHUGAI SEIYAKU KABUSHIKI KAISHA, priority 2021, published 2024).
Numbered stars: 1 amine (or outer) side, 2 acyl side, 3 side chain; on linkers, the order of the positions; unused ones are H or OH. Bridge positions count the residues as written; N and C are the ends. Square brackets hold non-standard residues; d marks the D form. Peptide text beside a SMILES is read from it. * marks the point of attachment. hPhe(3-Cl-4-CF3) = N[C@@H](CCc1ccc(C(F)(F)F)c(Cl)c1)C(=O)O; X27 = CN([C@@H](Cc1ccc(C(F)(F)F)nc1)C(=O)[*:2])[*:1]; X36 = O=C([C@H](Cc1cc(F)cc(Cl)c1)N[*:1])[*:2]; NMePhe(4-Cl) = CN[C@@H](Cc1ccc(Cl)cc1)C(=O)O; NMePhe(4-Me) = CN[C@@H](Cc1ccc(C)cc1)C(=O)O; NMeGly(cPent) = CN[C@H](C(=O)O)C1CCCC1; NMeCha = CN[C@@H](CC1CCCCC1)C(=O)O; NMeAhp(2) = CCCCC[C@H](NC)C(=O)O; NMeChg = CN[C@H](C(=O)O)C1CCCCC1; NMeI = CC[C@H](C)[C@H](NC)C(=O)O; NMeE = CN[C@@H](CCC(=O)O)C(=O)O; NMeD = CN[C@@H](CC(=O)O)C(=O)O; NMeL = CN[C@@H](CC(C)C)C(=O)O; Chg = N[C@H](C(=O)O)C1CCCCC1; NMeV = CN[C@H](C(=O)O)C(C)C; d(β3hA) = C[C@@H](N)CC(=O)O; Azetidin(1-yl) = C1CN(*)C1; dNMeS = CN[C@H](CO)C(=O)O; NMeA = CN[C@@H](C)C(=O)O; NMeAib = CNC(C)(C)C(=O)O; Nle = CCCC[C@H](N)C(=O)O; Piperidide = C1CCN(*)CC1; Ac5c = NC1(C(=O)O)CCCC1; Aze = O=C(O)[C@@H]1CCN1; Abu = CC[C@H](N)C(=O)O; Isopentyl = CC(C)CC*; Sar = CNCC(=O)O

tested on: Human pancreatic cancer cell line AsPC-1 (G12D mutation Kras); test: AsPC-1 cell growth inhibition (AsPC-1 CGI); type: cell-based; conditions: read-out: AsPC-1 cell growth inhibition, 50% growth inhibitory concentration (IC50 value); 96 hours, CellTiter-Glo, values classified in ranges
Experimental: Test compounds were serially dilated with dimethyl sulfoxide, and 200 nL was then dispensed to a U-bottom 96-well plate using Labcyte Echo. […] The cell suspension was dispensed to a. plate containing a test compound at 100 μL per well and incubated at 37° C. in a 5% carbon dioxide gas incubator. 96 hours later, 80 μL of CellTiter-Glo (Promega) was added to each well and fluorescence was measured.

**Q.** Which IC50 does the source give for `CC[C@@H]1NC(=O)[C@H]([C@@H](C)CC)NC(=O)[C@H](CC(C)C)N(C)C(=O)C[C@@H](C)NC(=O)[C@H](C(C)C)N(C)C(=O)C2(CCCC2)NC(=O)[C@@H]2CCCN2C(=O)[C@H](CCc2ccc(C(F)(F)F)c(Cl)c2)NC(=O)CN(C)C(=O)[C@H](CC2CCCCC2)N(C)C(=O)CN(C)C1=O` [Compound 1459] (cyclo([Abu][Sar][NMeCha][Sar][hPhe(3-Cl-4-CF3)]P[Ac5c][NMeV][d(β3hA)][NMeL]I)) here?
**A.** Its IC50 is greater than 500 nM.

**Q.** How did the IC50 turn out when `CCCC[C@@H]1NC(=O)[C@H](Cc2cc(F)cc(Cl)c2)NC(=O)CN(C)C(=O)[C@H](Cc2ccc(Cl)cc2)N(C)C(=O)CN(C)C(=O)CN(C)C(=O)[C@H]([C@@H](C)CC)NC(=O)[C@H](CC(C)C)N(C)C(=O)C[C@@H](C(=O)N2CCCCC2)N(C)C(=O)[C@H](CC(C)C)NC(=O)C(C)(C)N(C)C1=O` [Compound 202] ([NMeL]I[Sar][Sar][NMePhe(4-Cl)][Sar][X36][Nle][NMeAib]L[NMeD]-Piperidide; lactam N-11) was run?
**A.** The IC50 was greater than 500 nM.

**Q.** `CC[C@H](C)[C@@H]1NC(=O)[C@H](CC(C)C)N(C)C(=O)C[C@@H](C(=O)N2CCCCC2)N(C)C(=O)[C@H](C2CCCC2)N(C)C(=O)C2(CCCC2)NC(=O)[C@@H](COCCC(C)C)N(C)C(=O)[C@H](CCc2ccc(C(F)(F)F)c(Cl)c2)NC(=O)CN(C)C(=O)[C@H](CC2CCCCC2)N(C)C(=O)CN(C)C(=O)CN(C)C1=O` [Compound 1440] ([NMeL]I[Sar][Sar][NMeCha][Sar][hPhe(3-Cl-4-CF3)][dNMeS](Isopentyl)[Ac5c][NMeGly(cPent)][NMeD]-Piperidide; lactam N-11) was tested. Which IC50 did it give?
**A.** The IC50 was greater than 500 nM.

**Q.** Which IC50 does the source give for `CC[C@H](C)[C@@H]1NC(=O)[C@H](CC(C)C)N(C)C(=O)C[C@@H](C(=O)N2CCCCC2)N(C)C(=O)[C@H](C(C)C)N(C)C(=O)C2(CCCC2)NC(=O)[C@@H]2CCCN2C(=O)[C@H](CCc2ccc(C(F)(F)F)c(Cl)c2)NC(=O)CN(C)C(=O)[C@H](CC2CCCCC2)N(C)C(=O)[C@@H]2CCN2C(=O)[C@H](CCC(=O)NC)N(C)C1=O` [Compound 180] ([NMeL]I[NMeE](NHMe)[Aze][NMeCha][Sar][hPhe(3-Cl-4-CF3)]P[Ac5c][NMeV][NMeD]-Piperidide; lactam N-11) here?
**A.** Its IC50 is greater than 500 nM.

**Q.** Which IC50 does the source give for `CCCCC[C@H]1C(=O)N(C)[C@H](C(=O)N2CCCCC2)CC(=O)N(C)[C@@H](CC(C)C)C(=O)N[C@@H]([C@@H](C)CC)C(=O)N(C)CC(=O)N(C)CC(=O)N(C)[C@@H](CC2CCCCC2)C(=O)N(C)CC(=O)N[C@@H](CCc2ccc(C(F)(F)F)c(Cl)c2)C(=O)N2CCC[C@H]2C(=O)NC2(CCCC2)C(=O)N1C` [Compound 1719] ([NMeL]I[Sar][Sar][NMeCha][Sar][hPhe(3-Cl-4-CF3)]P[Ac5c][NMeAhp(2)][NMeD]-Piperidide; lactam N-11) here?
**A.** Its IC50 is greater than 500 nM.

**Q.** `CC[C@H](C)[C@@H]1NC(=O)[C@H](CC(C)C)N(C)C(=O)C[C@@H](C(=O)N2CCCCC2)N(C)C(=O)[C@H](C2CCCCC2)N(C)C(=O)C2(CCCC2)NC(=O)[C@H](Cc2ccc(C(F)(F)F)nc2)N(C)C(=O)[C@H](CCc2ccc(C(F)(F)F)c(Cl)c2)NC(=O)CN(C)C(=O)[C@H](CC2CCCCC2)N(C)C(=O)[C@@H]2CCN2C(=O)CN(C)C1=O` [Compound 6] ([NMeL]I[Sar][Aze][NMeCha][Sar][hPhe(3-Cl-4-CF3)][X27][Ac5c][NMeChg][NMeD]-Piperidide; lactam N-11) was tested. Which IC50 did it give?
**A.** Its IC50 is greater than 500 nM.

**Q.** `CC[C@H](C)[C@@H]1NC(=O)[C@H](CC(C)C)N(C)C(=O)C[C@@H](C(=O)N2CCCCC2)N(C)C(=O)[C@H](C2CCCCC2)NC(=O)C2(CCCC2)NC(=O)[C@@H]2CCCN2C(=O)[C@H](CCc2ccc(C(F)(F)F)c(Cl)c2)NC(=O)CN(C)C(=O)[C@H](CC2CCCCC2)N(C)C(=O)CN(C)C(=O)CN(C)C1=O` [Compound 1354] ([NMeL]I[Sar][Sar][NMeCha][Sar][hPhe(3-Cl-4-CF3)]P[Ac5c][Chg][NMeD]-Piperidide; lactam N-11) was tested. Which IC50 did it give?
**A.** The IC50 was greater than 500 nM.

**Q.** With `CC[C@H](C)[C@@H]1NC(=O)[C@H](CC(C)C)N(C)C(=O)C[C@@H](C(=O)N2CCC2)N(C)C(=O)[C@H](C2CCCC2)N(C)C(=O)C2(CCCC2)NC(=O)[C@@H]2CCCN2C(=O)[C@H](CCc2ccc(C(F)(F)F)c(Cl)c2)NC(=O)CN(C)C(=O)[C@H](CC2CCCCC2)N(C)C(=O)[C@@H]2CCN2C(=O)[C@H](C)N(C)C1=O` [Compound 515] ([NMeL]I[NMeA][Aze][NMeCha][Sar][hPhe(3-Cl-4-CF3)]P[Ac5c][NMeGly(cPent)][NMeD]-{Azetidin(1-yl)}; lactam N-11) as the molecule, how does the IC50 read?
**A.** Its IC50 is no more than 20 nM.

**Q.** `CC[C@H](C)[C@@H]1NC(=O)[C@H](C2CCCC2)N(C)C(=O)C[C@@H](C)NC(=O)[C@H](C(C)C)N(C)C(=O)C2(CCCC2)NC(=O)[C@@H]2CCCN2C(=O)[C@H](CCc2ccc(C(F)(F)F)c(Cl)c2)NC(=O)CN(C)C(=O)[C@H](CC2CCCCC2)N(C)C(=O)[C@@H]2CCN2C(=O)[C@H](C)N(C)C1=O` [Compound 570] (cyclo([Ac5c][NMeV][d(β3hA)][NMeGly(cPent)]I[NMeA][Aze][NMeCha][Sar][hPhe(3-Cl-4-CF3)]P)) was tested. Which IC50 did it give?
**A.** The IC50 was greater than 500 nM.

**Q.** With `CC[C@H](C)[C@@H]1NC(=O)[C@H](CC(C)C)N(C)C(=O)C[C@@H](C(=O)N(C)C)N(C)C(=O)[C@H]([C@@H](C)CC)N(C)C(=O)C2(CCCC2)NC(=O)[C@@H]2CCCN2C(=O)[C@H](CCc2ccc(C(F)(F)F)c(Cl)c2)NC(=O)CN(C)C(=O)[C@H](Cc2ccc(C)cc2)N(C)C(=O)CN(C)C(=O)CN(C)C1=O` [Compound 1836] ([NMeL]I[Sar][Sar][NMePhe(4-Me)][Sar][hPhe(3-Cl-4-CF3)]P[Ac5c][NMeI][NMeD]-NMe2; lactam N-11) as the molecule, how does the IC50 read?
**A.** The IC50 was no more than 20 nM.
